This is an account of results in paper PMC3734263, “Fatty Acid Amide Hydrolase-Dependent Generation of Antinociceptive Drug Metabolites Acting on TRPV1 in the Brain” (PLoS ONE, 2013).

For orientation: pEC50 means −log10 of the EC50, conventionally taken in molar units.

The nature of data set [1]: Contents of amines and lipid metabolites in blood and brain after i.p. injection in mice (LC-MS/MS). The class given is in vivo, mouse. The procedure:
Twenty min after drug administration, the animals were anesthetized by CO2 (rats) or isoflurane (mice) inhalation and decapitated. The brain was removed from the skull and blood was collected in test tubes, containing 60 µl buffered citrate, and the tissues snap frozen in liquid nitrogen before storage at −70°C.
(§1) The whole brain was homogenized in ice-cold 10 mM Tris buffer (ml/g tissue) at pH 7.6. The buffer solution contained 1 mM EDTA, 0.3 mM ascorbic acid and 10 µM methylarachidonylfluorophosphonate (MAFP) to prevent degradation of AM404, arvanil, olvanil, anandamide and 2-arachidonoylglycerol. Aliquots (200 µl) of blood and homogenates were precipitated with 1 ml ice-cold acetone, containing AM404-D4 (5 nM) or anandamide-D8 (100 nM) as internal standard. After centrifugation at 25,200 g for 30 min at 4°C, the supernatants were collected in polypropylene tubes and vacuum evaporated. The protein content of the pellet was determined with Coomassie protein assay (Pierce; Illinois, USA), using bovine serum albumin as standard. […] Samples were analyzed on a Waters Aquity UPLC system coupled to a Sciex 5500 tandem mass spectrometer (LC-MS/MS; AB Sciex; Massachusetts, USA) or a Perkin Elmer 200 HPLC system coupled to an API 3000 tandem mass spectrometer (LC-MS-MS; Applied Biosystems/MDS-SCIEX).
(§2) Quantification of AM404, HPODA, arvanil and olvanil. Samples were analyzed on a Waters Aquity UPLC system coupled to a Sciex 5500 tandem mass spectrometer. Sample aliquots of 5 µl were injected into an Acquity UPLC BEH C18 column (100 × 2 mm, 1.7 µm; Waters) held at 50°C. All mobile phases were water-acetonitrile gradients, containing 0.1% formic acid and using a flow rate of 400 µl/min. The acetonitrile content was initially 30%, then increased linearly to 100% over 7 min and kept at this level for 4 min, followed by an equilibration period at 30% for 2 min. The electrospray interface was operating in the positive ion mode at 550°C and the ion spray voltage was set to 5000 volts. The mass transitions (m/z) used were the following: 396.2/110.1 for AM404, 374.2/110.0 for HPODA, 400.2/114.0 for AM404-D4, 440.3/137.1 for arvanil and 418.3/137.1 for olvanil. The declustering potentials were between 96 and 130 volts and the collision energies between 25 and 41 volts.
Quantification of 4-aminophenol and HMBA. Sample aliquots of 5 µl were injected into a Hypercarb column (50 × 2.1 mm; Thermo). All mobile phases were water-acetonitrile gradients, containing 0.1% formic acid. The acetonitrile content was initially 2%, then increased linearly to […] over 5 min and then kept at 100% for 1 min, followed by an equilibration period at 2% for 1.5 min. The electrospray ion source was set at 550°C and used in the positive ion mode with an ion spray voltage of 5000. […] HMBA loses the amino group already in the source of the MS and therefore the mass transition used was 137.0/94.0. The declustering potentials were 100 and 90 volts and the collision energies 21 and 29 volts. No internal standard was used for these analyses.
The contents of the compounds were expressed either in moles or as normalized peak areas (nPA) and related to the protein content in the samples. The nPA was obtained by dividing the peak area of the analyte with the peak area for the internal standard in the same sample. The detection limits were calculated as the concentrations corresponding to three times the standard deviation of the blanks. When levels were below detection limit, numerical values of half the detection limit were used in the calculations.

The subject of data set [2] is mice. The data set is described as follows: Spontaneous locomotor activity in actimetry boxes. The class given is in vivo, mouse. The conditions noted are these: 10 min before test. The procedure: Mice were placed in actimetry boxes (Actisystem; Apelex, France) and spontaneous motor activity was assessed by determining the number of crossings of light beams during 15 min.

Data set [3] concerns mice. The data set is described as follows: Formalin test, mouse. The class given is in vivo. The settings on record: for formalin test phases: HMBA 100 mg/kg. The method, then:
(§3) The animals received an intraplantar injection of a 2.5% formalin solution (50 µl rat, 25 µl mouse) into a hind paw. The time spent biting and licking of the injected paw was monitored during the two typical phases of the nociceptive response (phase I: 0–5 min; phase II: 20–40 min in rats or 15–40 min in mice).

The subject of data set [4] is mice. The data set is described as follows: von Frey filament test, mouse. The class given is in vivo. The conditions noted are these: 30 mg/kg i.p. An excerpt: Calibrated von Frey filaments (0.0045–5.4950 g) were used to induce light noxious mechanical stimulation in mice. Tests were commenced after one hour of habituation. Filaments of increasing stiffness were applied five times perpendicular to the plantar surface of the hindpaw and pressed until bending. The first filament that evoked at least three consecutive responses was assigned as the threshold (cut-off 2 g).

For data set [5], the system named is mice. In words: Tail immersion test, mouse. The class given is in vivo. The conditions noted are these: 30 mg/kg i.p. The procedure: Tails of mice were submerged in a hot water bath (46°C) and the withdrawal latency recorded (cut-off 15 s). The mean of four baseline values were determined before drug administration.
Data set [6] relates to rats. In words: Formalin test, rat. The class given is in vivo. The conditions noted are these: 4-aminophenol 10, 30 and 100 mg/kg i.p. The procedure:
as §3

The nature of data set [7]: Global brain levels of endocannabinoids in the rat after 4-aminophenol. The class given is in vivo. The conditions noted are these: 4-aminophenol 100 mg/kg i.p.; 15, 30, 45 and 60 min. The procedure: as §1
Quantification of anandamide and 2-arachidonoylglycerol. Anandamide (m/z 348.2/62.0), anandamide-D8 (m/z 356.4/63.0) and 2-arachidonoylglycerol (m/z 379.2/287.0) were determined as previously described. Since 2-arachidonoylglycerol is non-enzymatically converted to 1-arachidonoylglycerol, the content of 2-arachidonoylglycerol was estimated as the sum of these lipids. […]

Data set [8] relates to rats. The settings on record: 4-aminophenol three doses, data not shown.
The subject of data set [9] is rodents. The conditions noted are these: doses not far from those eliciting antinociception in rodents; cited from earlier work.
Data set [10] has as its system rats. In words: Paw pressure test, rat.
Procedure: The behavioural tests were performed in a quiet room and evaluated by a single investigator in a blinded manner. Treatments and/or genotypes were randomized in blocks and the number of animals in each block corresponded to the number of treatments and/or genotypes compared. […] Each animal was exposed to only one treatment.
The rats were submitted to the paw pressure test, using an Ugo Basile analgesy meter with a probe tip diameter of 1 mm (Bioseb, France). Nociceptive thresholds, expressed in grams (g), were measured by applying an increasing pressure to the right hind paw until a squeak (vocalization thresholds) was obtained (cut-off 750 g). Two consecutive stable vocalisation threshold values were first obtained (baseline).
Intrathecal injections were performed on anaesthetised rats held in one hand by the pelvic girdle. A 25 gauge 1 inch needle connected to a 25 µl Hamilton syringe was then inserted into the subarachnoidal space between lumbar vertebrae L5 and L6 until a tail flick was elicited. The syringe was held in position for few seconds after the injection of a volume of 10 µl [49]. All injections were performed under isoflurane anaesthesia (4% induction, 2% maintenance).
Data set [11] in a line: Formation of arvanil and olvanil in brain homogenates incubated with HMBA. The class given is in vitro ADME, rat. The conditions noted are these: HMBA 100 µM, 60 min. The procedure: Rat brain homogenate were prepared, as previously described. Brains were homogenized in Tris buffer (10 mM, pH 7.6), containing ethylenediaminetetraacetic acid (EDTA; 1 mM), at volumes of 5–10 ml/g tissue. Experiments were carried out on aliquots of 200 µl homogenate at 37°C as further explained in the text. The reactions were stopped by adding 1 ml ice-cold acetone, containing 1 µM [^2H8]-anandamide. The samples were kept on ice until the acetone phase was vacuum evaporated.
as §2, with “The declustering potentials were between 96 and 130 volts and the collision energies between 25 and 41 volts.” left out

Data set [12] addresses T1, TRPV1 (Rattus norvegicus, UniProt O35433).
T1 construct: rat mesenteric arterial segments precontracted with phenylephrine; from tissue; host or cells: rat isolated mesenteric arterial segments (Sprague-Dawley rats)
The data set is described as follows: TRPV1 activation assessed as nerve-mediated vasorelaxation in rat isolated mesenteric arteries. The class given is cell-based. The procedure:
TRPV1 activation was assessed indirectly on rat isolated mesenteric arteries, using nerve-mediated vasorelaxation as readout. Briefly, arterial segments (2 mm long) were suspended between two stainless steel wires in temperature-controlled tissue baths (37°C), containing aerated (95% O2 and 5% CO2) physiological salt solution (composition in mM: NaCl 119, KCl 4.6, CaCl2 1.5, MgCl2 1.2, NaHCO3 15, NaH2PO4 1.2 and D-glucose 6; pH 7.4), under a passive load of 2 mN. One of the wires was connected to a force-displacement transducer model FT03 C (Grass Instruments; Rhode Island, USA) for isometric tension recording. Vasorelaxation was studied in arterial segments submaximally contracted with phenylephrine. Increasing concentrations of AM404, arvanil, olvanil and HPODA in the absence and presence of capsazepine (3 µM) were then added cumulatively to determine concentration-response relationships. All experiments were performed in the presence of indomethacin (10 µM) and N^ω-nitro-L-arginine (300 µM) to reduce cyclooxygenase and nitric oxide synthase activity, respectively.
Data are presented as the mean ± SEM, and n indicates the number of animal tested in each group. pEC50 of the lipid metabolites indicates the negative log concentration that elicited half-maximal vasorelaxation. Mann-Whitney U test or Student’s t-test was used when two groups were compared. When multiple groups were compared, Kruskal-Wallis one-way ANOVA followed by Dunn’s multiple comparisons test was used. Data from the paw pressure test were analyzed by repeated measures two-way ANOVA followed by Sidak’s or Dunnett’s multiple comparisons test. The level of statistical significance was set at p<0.05. GraphPad Prism 6.0 software (California, USA) was used in all calculations and statistical analyses.

Data set [13] has as its system rat orthologue of TRPV1. Set-up: method as in PMID 11159715. The settings on record: 45Ca2+ uptake assay, CHO cells expressing rat TRPV1; cited from earlier work.
In data set [14] the test system is human TRPV1. Also on record: method as in PMID 11033355. The conditions noted are these: HEK293 cells expressing human TRPV1, fluorometric calcium imaging; cited from earlier work.
The mark [15] stands for this setting: 4-aminophenol 30 mg/kg i.p., mouse.
Where [16] appears, read: 4-aminophenol 100 mg/kg i.p., mouse.
[17] abbreviates: 20 min after 4-AP 30 mg/kg i.p., mouse.
The mark [18] stands for this setting: 20 min after 4-AP 100 mg/kg i.p., mouse.

pEC50: −log10 of the molar value. “And” between values parts separate entries of the source, which are not always exact repeats. Identical values can stand only once. Some results are limits rather than exact numbers.

T1 sequence (O35433 whole entry): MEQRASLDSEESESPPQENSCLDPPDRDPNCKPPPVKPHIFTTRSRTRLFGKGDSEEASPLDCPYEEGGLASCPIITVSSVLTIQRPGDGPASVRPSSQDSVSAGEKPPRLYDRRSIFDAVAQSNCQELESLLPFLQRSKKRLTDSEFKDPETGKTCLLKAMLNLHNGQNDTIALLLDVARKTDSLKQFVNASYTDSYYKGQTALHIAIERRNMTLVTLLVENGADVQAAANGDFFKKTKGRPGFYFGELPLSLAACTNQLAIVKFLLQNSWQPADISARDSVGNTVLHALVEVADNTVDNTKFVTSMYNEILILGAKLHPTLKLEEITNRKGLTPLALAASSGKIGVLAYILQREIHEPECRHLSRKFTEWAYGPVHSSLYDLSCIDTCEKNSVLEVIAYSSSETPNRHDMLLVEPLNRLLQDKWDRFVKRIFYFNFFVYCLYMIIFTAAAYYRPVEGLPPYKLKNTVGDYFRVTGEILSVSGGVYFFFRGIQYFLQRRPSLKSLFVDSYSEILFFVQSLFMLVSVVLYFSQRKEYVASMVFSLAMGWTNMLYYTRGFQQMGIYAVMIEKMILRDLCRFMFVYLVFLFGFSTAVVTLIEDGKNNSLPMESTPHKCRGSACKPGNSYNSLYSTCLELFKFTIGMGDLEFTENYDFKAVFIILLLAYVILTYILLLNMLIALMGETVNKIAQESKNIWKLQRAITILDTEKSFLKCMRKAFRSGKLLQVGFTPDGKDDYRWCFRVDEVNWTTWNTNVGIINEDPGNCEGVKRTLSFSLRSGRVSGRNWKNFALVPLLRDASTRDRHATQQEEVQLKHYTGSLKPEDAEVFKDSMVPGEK

Turning to `Nc1ccc(O)cc1` [4-aminophenol], the figures for the “quotient between brain levels of 4-aminophenol and AM404” value in [1] (setting [15]) and in data set [1] (setting [16]) were 223 and 1,547, respectively. Besides, the “quotient between brain levels of 4-aminophenol and HPODA” value is given as 951 in data set [1] (setting [15]) and 9,376 in [1] (setting [16]). In addition, the “Blood 4-AP” value in data set [1] (setting [17]) amounted to 283 ± 15 nmol/g; in [1] (setting [18]), 878 ± 157 nmol/g. Further, the “Brain 4-AP” value in data set [1] (setting [17]) is 91 nmol/g; in data set [1] (20 min after 4-AP 30 mg/kg i.p., mouse, listed as 4-AP) it was 91 ± 12 nmol/g; in data set [1] (setting [18]) it was 7470 ± 1720 nmol/g. Also, the locomotor activity result is recorded as “reduced locomotor activity after the highest dose” in data set [2] (4-aminophenol 10, 30 and 100 mg/kg i.p.); “tolerated all three doses” in data set [8]. In [3] (30 mg/kg i.p., FAAH+/+ mice), the “licking time in formalin test” value was “reduced the licking time during the first and second phases”. The “antinociception in formalin test” value in data set [3] (30 mg/kg i.p., FAAH−/− mice) is “failed to produce antinociception”. Further, the “antinociceptive activity in formalin test” value in data set [3] (30 mg/kg i.p., TRPV1−/− mice) is on record as “lost”. Moreover, the “withdrawal threshold in von Frey test” value in [4] (FAAH+/+ mice) is on record as “increased the withdrawal threshold”. In addition, the “antinociception in von Frey test” value in [4] (FAAH−/− mice) was “failed to produce antinociception”. In [4] (TRPV1−/− mice), the “antinociceptive activity in von Frey test” value is listed as “lost”. The “latency time in tail immersion test” value in data set [5] (FAAH+/+ mice) was “increased”. Also, in data set [5] (FAAH−/− mice), the “antinociception in tail immersion test” value is recorded as “failed to produce antinociception”. Further, in data set [5] (TRPV1−/− mice), the “antinociceptive activity in tail immersion test” value is “lost”. In data set [6], the “licking time in rat formalin test” value is reported as “Only the highest dose reduced both phases”. The “global levels of the endocannabinoids anandamide and 2-arachidonoylglycerol in the rat brain” value in data set [7] is reported as “did not affect the global levels”. Also, the “nephrotoxic effect after a single exposure” value in [9] was “renal tubular necrosis”. In addition, the “withdrawal threshold in rat paw pressure test” value in data set [10] (100 mg/kg i.p., 15 and 30 min after administration) was “increased the withdrawal threshold”; in data set [10] (intermediate dose 30 mg/kg i.p.), “effective only at 15 min”; in data set [10] (low dose 10 mg/kg i.p.), “inactive”.

In the case of `COc1cc(CN)ccc1O` [HMBA, 4-hydroxy-3-methoxybenzylamine], the “formation of N-acylamines in brain homogenates” value in data set [11] was “leads to the formation of arvanil and olvanil”. In addition, the locomotor activity result in data set [2] (HMBA 100, 200 and 300 mg/kg i.p.) is recorded as “only the dose of 100 mg/kg failed to affect locomotion”. For the same compound, the formalin test phases entry in data set [3] (FAAH−/− mice) is “affected none of these phases”; in [3] (wild-type mice) it was “inhibited both the first and second phases”.

Turning to `CCCCC/C=C\C/C=C\C/C=C\C/C=C\CCCC(=O)NCc1ccc(O)c(OC)c1` [arvanil, N-(4-hydroxy-3-methoxybenzyl)-5Z,8Z,11Z,14Z-eicosatetraenamide], the pEC50 in data set [12] is 9.70. In data set [12] (vasorelaxation readout), the “times more potent than AM404 as TRPV1 activator” value is > 100 times and 172 times. Moreover, the “times more potent than HPODA as TRPV1 activator” value in data set [12] (vasorelaxation readout) was above 300 times. Moreover, the “Brain Arvanil” value in data set [1] (20 min after HMBA 100 mg/kg i.p., mouse) amounted to 3.33 pmol/g; in data set [1] (20 min after HMBA 100 mg/kg i.p., mouse, listed as Arvanil), 3.33 ± 0.33 pmol/g; in data set [1] (20 min after HMBA 300 mg/kg i.p., mouse), 56 ± 10 pmol/g. The “brain content in FAAH−/− mice compared to FAAH+/+ littermates” value in data set [1] (20 min after i.p. 4-aminophenol (30 and 100 mg/kg) or HMBA (300 mg/kg)) is reported as “substantially reduced”. Moreover, the concentration at 20 min in data set [1] (in vivo, HMBA 100 mg/kg, mouse, read-out: brain content of arvanil) was 3.33 pM. For the same compound, the “times more potent than AM404” value in [13] is listed as 933 times; in data set [14], “approximately 50 times”.
